Data on seven molecules can be found in article PMC11213934, “Allosteric modulators of M1 muscarinic receptors enhance acetylcholine efficacy and decrease locomotor activity and turning behaviors in zebrafish” (Scientific Reports, 2024).

Marks after values point to notes of the source that are not given here. Where only a bound is given, the exact number is not on record here.

The target of data set [1] is T1, human M1 muscarinic receptors (Homo sapiens, UniProt P11229).
T1 sequence (P11229 1-460): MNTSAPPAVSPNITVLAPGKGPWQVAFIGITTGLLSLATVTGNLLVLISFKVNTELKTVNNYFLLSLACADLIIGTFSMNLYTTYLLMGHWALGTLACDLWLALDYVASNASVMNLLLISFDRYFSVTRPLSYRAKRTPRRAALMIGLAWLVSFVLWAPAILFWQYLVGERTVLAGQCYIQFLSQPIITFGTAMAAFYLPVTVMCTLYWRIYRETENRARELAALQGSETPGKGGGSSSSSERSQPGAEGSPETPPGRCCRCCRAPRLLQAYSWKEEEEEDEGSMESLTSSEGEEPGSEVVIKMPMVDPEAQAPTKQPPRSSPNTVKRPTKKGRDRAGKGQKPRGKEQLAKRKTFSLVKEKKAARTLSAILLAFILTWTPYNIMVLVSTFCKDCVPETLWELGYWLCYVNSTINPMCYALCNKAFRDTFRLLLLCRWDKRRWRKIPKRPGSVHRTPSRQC
Nature of the data set: [3H]-arachidonic acid release in CHO cells expressing M1 receptors, with and without ACh (single modulator concentration, four-parameter curves). It is filed as cell-based. More on the design: expressed in transfected cells; host or cells: CHO cells stably transfected with hM1, obtained from Mark Brann's laboratory (NIH). Particulars: for 0.1 µM ACh: response with modulator present divided by response to ACh alone / 100 µM ACh: response with modulator present divided by response to ACh alone / No ACh: agonist effect of the allosteric ligand by itself, fraction of the maximal response that could be elicited by ACh: modulator 10 µM, CHO-hM1, mean ± s.e.m.; for No ACh: agonist effect of the allosteric ligand by itself, fraction of the maximal response that could be elicited by ACh: at least 4 determinations; for Effect on M1 receptor activity and ACh response, in words: modulators at 10 µM (amiodarone 30 µM). Here is the method:
CHO cells expressing human M1 muscarinic receptors were cultured at 37 °C in a 5% CO2 atmosphere in F12 medium supplemented with 5% fetal bovine serum, 100 units/ml penicillin, and 100 µg/ml streptomycin. These cells were obtained from Mark Brann’s laboratory when they were at NIH and have been in use by us and others for many years.
Measurement of [^3H]AA release was performed as described in Stahl and Ellis[24]. Stably transfected CHO-hM1 cells were seeded on 24-well plates (Greiner Bio-One GmbH, Frickenhausen, Germany) at a density of 5.0 × 10^4 cells/well in 0.5 ml of F-12 medium. Cells were incubated until they attached (approximately 3 h), followed by the addition of [^3H]AA to a final concentration of 0.05 μCi of [^3H]AA per well. The cells were then grown for 16 to 20 h before the assay was performed. [^3H]AA release was measured in Eagle’s basal medium with 20 mM HEPES and 2 mg/ml fatty acid-free bovine serum albumin (EM-BSA). Cells were rinsed twice with EM-BSA, followed by the addition of EM-BSA media containing experimental agents and incubated for 1 h at 37 °C. The assay was terminated by aspiration of the media, and the amount of [^3H]AA released was determined by liquid scintillation counting (Beckman-Coulter LS6500).
Where indicated (Fig. 2), cells were pretreated with POB to reduce the number of available receptors per cell. Stock POB was made up at 10 mM in ethanol and stored at −20C. Each well was pretreated with 0.5 ml of the appropriate concentration in PBS with 1 mM CaCl2 and 1 mM MgCl2 (PBS+ +) for 30 min at 37 °C, followed by 5 washes with PBS+ + . After pretreatment, the normal protocol follows as above.
Tabulated [^3H]AA release data are represented as a fraction of maximal release elicited by ACh or as the fraction of release elicited by the relevant concentration of ACh alone, as indicated. Dose-response curves were normalized to the maximal response of ACh without allosteric ligand. Where indicated, response curves were analyzed using the empirical four-parameter equation: Y=Top+Bottom-Top/1+X/C50^n where X is the concentration of the ligand used, Y is the amount of response, C50 is the concentration of the ligand that produces 50% of the maximal effect, Top and Bottom are the top and bottom plateaus of the curve, and n is related to the Hill slope for the curve. Where indicated, families of response curves were analyzed according to an allosteric operational model[50],[51]: Y=EM[τAA(KB+αβB)+τBBKA]/[τAA(KB+αβB)+τBBKA+AKB+KAKB+KAB+αAB] where EM is the maximal response; A is the concentration of ACh; B is the concentration of the allosteric ligand; τA and τB represent the operational efficacies of A and B, respectively; KA and KB are the equilibrium dissociation constants of A and B; and α and β represent the cooperativities between A and B in terms of binding and activation, respectively. Curve-fitting was carried out with GraphPad Prism, version 5.0 or 6.0 (San Diego CA).

Data set [2] deals with wild-type (AB) zebrafish (Danio rerio). In kind it is in vivo. Particulars: compound at 10 µM relative to controls; mean ± s.e.m., N = 12.
For data set [3] the test system is unchanged. Nature of the data set: animal or person. In kind it is in vivo. The note with it: for Distance moved / Variance turn angle: compound at 10 µM relative to controls, mean ± s.e.m., N = 12; for MEC: locomotor behaviors. The protocol:
(§1) Larval zebrafish were produced in the University of Toledo zebrafish core facility and housed in an incubator maintained at 28 °C on a 14:10 h cycle. Fish were acclimated to the testing room conditions the evening prior to testing. All testing took place during the 14 h light cycle after the lights had been on for at least 2 h.
The movement of larval zebrafish was monitored with the Noldus behavior recording system (Noldus Information Technology, Leesburg VA) and quantified using EthoVision® XT 15 software (Noldus Information Technology, Leesburg VA). Five-dpf zebrafish larvae were exposed to a range of nonlethal concentrations of compounds in a 24-well plate with appropriate controls. The plate was immediately placed in the incubator for a 30-min exposure period. After 30 min, the plate was transferred to the Noldus system and swimming behavior was recorded in 100% light for 30 min to measure spontaneous swimming behavior. The light was switched off for 10 min (dark period) and then switched on for 10 min (light period), which was then repeated for two additional cycles. In total, the larvae were exposed to three cycles of alternating 10 min dark and light periods (100% darkness-to-100% light). Each drug challenge was conducted on three separate plates with n = 6 larvae/dose/plate.
Absolute turn angle (TA) and angular velocity provided measures of the extent of turning behavior, while the intra-individual variance of turn angle quantified how consistently (low variance) or inconsistently (high variance) fish turned. A lowered intra-individual variance of turning reflected repeatedly performing the same turning behavior, a stereotypy.
All data for exposure and the behavioral end points were analyzed by one-way ANOVA (factor: drug concentration) followed by a Dunnett’s multiple comparisons test for post hoc significance between drug concentration and control group. Statistically significant differences are noted as follows; *p < 0.05; **p < 0.01; ***p < 0.001.

Data set [4] has the same test system. The experiment in a line: Maximum tolerated concentration (MTC) determination in larval zebrafish. In kind it is in vivo. Particulars: after 24 h exposure; 5 dpf larvae. The protocol:
as §1
Determination of maximum tolerated concentration (adapted from Berghmans)[52] was completed by placing 5 days post fertilization (dpf) wild-type zebrafish larvae in a 24 well plate at 6 fish per well, and one compound concentration per well. […] Death was determined by the absence of heartbeat. Additional endpoints were used to assess toxicity at non-lethal concentrations such as startle capacity (poke stimulus), abnormalities in swimming behavior (loss of dorsoventral balance), and gross morphological deformities (bent body). […] The MTC determination was used to select three doses of each compound (low, medium, high dose) to be used in behavioral assays.

Take `COc1ccc(CN2C(=O)C(=O)c3ccccc32)cc1Cl` [Compound 8f, 1-(3-chloro-4-methoxybenzyl)indoline-2,3-dione]: in data set [1], the “0.1 µM ACh: response with modulator present divided by response to ACh alone” value was 1.67 ± 0.12; the “100 µM ACh: response with modulator present divided by response to ACh alone” value was 1.08 ± 0.06; the “No ACh: agonist effect of the allosteric ligand by itself, fraction of the maximal response that could be elicited by ACh” value is 0.09 ± 0.04. Besides, the Angular velocity in data set [2] is 157.1 ± 24.5 %. For the same molecule, in data set [3], the Therap. index came to 3.3, the Distance moved is given as 37.4 ± 6.4*** %, the Variance turn angle worked out at 127.9 ± 16.2% and the MEC is 3 µM. In addition, the “MTC (maximum tolerated concentration)” value in data set [4] is 10 µM.
Consider `CCCCc1oc2ccccc2c1C(=O)c1cc(I)c(OC)c(I)c1` [Compound 6b, (2-butylbenzofuran-3-yl)(3,5-diiodo-4-methoxyphenyl)methanone], for which, in data set [1], the “0.1 µM ACh: response with modulator present divided by response to ACh alone” value was 1.78 ± 0.12; the “100 µM ACh: response with modulator present divided by response to ACh alone” value was 1.36 ± 0.07; the “No ACh: agonist effect of the allosteric ligand by itself, fraction of the maximal response that could be elicited by ACh” value is given as 0.08 ± 0.02; the “Effect on M1 receptor activity and ACh response, in words” value is given as “increased ACh activity”. Also, in data set [2], the Angular velocity is given as 132.3 ± 16.9%. In data set [3], the Distance moved was 75.3 ± 8.5* %, the Variance turn angle is on record as 133.7 ± 14.0* % and the MEC is more than 30 µM. For the same molecule, the “MTC (maximum tolerated concentration)” value in data set [4] came out at 30 µM.
On to `O=C1C(=O)N(Cc2ccc(O)cc2)c2ccccc21` [Compound 10, 1-(4-hydroxybenzyl)indoline-2,3-dione], for which, in data set [1], the “0.1 µM ACh: response with modulator present divided by response to ACh alone” value worked out at 1.42 ± 0.24; the “100 µM ACh: response with modulator present divided by response to ACh alone” value is recorded as 0.92 ± 0.06; the “No ACh: agonist effect of the allosteric ligand by itself, fraction of the maximal response that could be elicited by ACh” value is recorded as 0.01 ± 0.01. In addition, in data set [2], the Angular velocity stood at 131.2 ± 13.4 %. Besides, in data set [3], the Therap. index is 3.3, the Distance moved is reported as 72.4 ± 8.6* %, the Variance turn angle is on record as 135.3 ± 13.5* % and the MEC was 3 µM. The “MTC (maximum tolerated concentration)” value in data set [4] came to 10 µM.
Consider `COc1cc(CN2C(=O)C(=O)c3ccccc32)cc(OC)c1OC` [Compound 8k, 1-(3,4,5-trimethoxybenzyl)indoline-2,3-dione], for which, in data set [1], the “0.1 µM ACh: response with modulator present divided by response to ACh alone” value is 1.55 ± 0.07; the “100 µM ACh: response with modulator present divided by response to ACh alone” value is given as 0.94 ± 0.06; the “No ACh: agonist effect of the allosteric ligand by itself, fraction of the maximal response that could be elicited by ACh” value was 0.03 ± 0.00. This molecule also returned an Angular velocity in data set [2] of 154.2 ± 18.0 %. Further, in data set [3], the Therap. index is listed as 30, the Distance moved is recorded as 66.2 ± 8.4** %, the Variance turn angle is recorded as 126.3 ± 10.8* % and the MEC came to 1 µM. The “MTC (maximum tolerated concentration)” value in data set [4] is reported as 30 µM.
For `COc1ccc(CN2C(=O)C(=O)c3ccccc32)cc1I` [Compound 8b, 1-(3-iodo-4-methoxybenzyl)indoline-2,3-dione], in data set [1], the “0.1 µM ACh: response with modulator present divided by response to ACh alone” value stood at 2.13 ± 0.08; the “100 µM ACh: response with modulator present divided by response to ACh alone” value was 1.24 ± 0.01; the “No ACh: agonist effect of the allosteric ligand by itself, fraction of the maximal response that could be elicited by ACh” value stood at 0.08 ± 0.01. The Angular velocity in data set [2] was 175.3 ± 19.0 %. For the same molecule, in data set [3], the Therap. index turned out to be 10, the Distance moved is 52.7 ± 6.6*** %, the Variance turn angle was 143.0 ± 13.5** % and the MEC is reported as 1 µM. The “MTC (maximum tolerated concentration)” value in data set [4] is recorded as 10 µM.
`COc1ccc(CN2C(=O)C(=O)c3ccccc32)cc1F` [Compound 8h, 1-(3-fluoro-4-methoxybenzyl)indoline-2,3-dione]: in data set [1], the “0.1 µM ACh: response with modulator present divided by response to ACh alone” value was 1.32 ± 0.10; the “100 µM ACh: response with modulator present divided by response to ACh alone” value is recorded as 0.97 ± 0.06; the “No ACh: agonist effect of the allosteric ligand by itself, fraction of the maximal response that could be elicited by ACh” value stood at 0.05 ± 0.03. Also, the Angular velocity in data set [2] was found to be 201.4 ± 27.5 %. For the same molecule, in data set [3], the Therap. index is 10, the Distance moved is recorded as 52.7 ± 6.6*** %, the Variance turn angle is given as 148.0 ± 12.4*** % and the MEC turned out to be 3 µM. In addition, the “MTC (maximum tolerated concentration)” value in data set [4] is 30 µM.
As to `CCCCc1oc2ccccc2c1C(=O)c1ccc(OCCN(CC)CC)cc1` [Compound 6c, (2-butylbenzofuran-3-yl)(4-(2-(diethylamino)ethoxy)phenyl)methanone], in data set [1], the “0.1 µM ACh: response with modulator present divided by response to ACh alone” value amounted to 0.40 ± 0.11; the “100 µM ACh: response with modulator present divided by response to ACh alone” value is reported as 1.04 ± 0.05; the “No ACh: agonist effect of the allosteric ligand by itself, fraction of the maximal response that could be elicited by ACh” value was 0.04 ± 0.01; the “Effect on M1 receptor activity and ACh response, in words” value is listed as “decreased ACh activity”. For the same molecule, the Angular velocity in data set [2] is 129.9 ± 20.1%. Besides, in data set [3], the Therap. index stood at 30, the Distance moved was determined as 59.8 ± 8.8%, the Variance turn angle was determined as 136.4 ± 11.8% and the MEC was 0.1 µM. In addition, the “MTC (maximum tolerated concentration)” value in data set [4] is on record as 3 µM.
